Tests used:
Type in all cases: in vivo
[1] = system: Orchid thrips (Dichromothrips corbetti); assay: Action on orchid thrips (Dichromothrips corbetti), floral-immersion technique; details: adult thrips, 72 hours after treatment, read-out: mortality in comparison with untreated controls
Description: Example B2: Action on Orchid Thrips (Dichromothrips corbetti)
Dichromothrips corbetti adults used for bioassay were obtained from a colony maintained continuously under laboratory conditions. For testing purposes, the test compound is diluted in a 1:1 mixture of acetone:water (vol:vol), plus Kinetic® HV at a rate of 0.01% v/v.
Thrips potency of each compound was evaluated by using a floral-immersion technique. All petals of individual, intact orchid flowers were dipped into treatment solution and allowed to dry in Petri dishes. Treated petals were placed into individual re-sealable plastic along with about 20 adult thrips. All test arenas were held under continuous light and a temperature of about 28° C. for duration of the assay. After 3 days, the numbers of live thrips were counted on each petal. The percent mortality was recorded 72 hours after treatment.

[2] = system: boll weevil (Anthonomus grandis); assay: Action on boll weevil (Anthonomus grandis), eggs on insect diet in microtiter plates; details: 120 h, egg and larval mortality after 5 days, read-out: mortality in comparison with untreated controls
Description: Example B3: Action on Boll Weevil (Anthonomus grandis)
For evaluating control of boll weevil (Anthonomus grandis) the test unit consisted of 96-well-microtiter plates containing an insect diet and 5-10 A. grandis eggs.
The compounds were formulated using a solution containing 75% (v/v) water and 25% (v/v) DMSO. Different concentrations of formulated compounds were sprayed onto the insect diet at 5 μl, using a custom built micro atomizer, at two replications.
After application, microtiter plates were incubated at about 25+1° C. and about 75+5% relative humidity for 5 days. Egg and larval mortality were then visually assessed.

[3] = system: yellow fever mosquito (Aedes aegypti); assay: whole plant or invertebrate; details: 48 h, larval mortality visually assessed after 2 days, read-out: mortality in comparison with untreated controls
Description: Example B1: Action on Yellow Fever Mosquito (Aedes aegypti)
For evaluating control of yellow fever mosquito (Aedes aegypti) the test unit consisted of 96-well-microtiter plates containing 200 μl of tap water per well and 5-15 freshly hatched A. aegypti larvae.
The active compounds or mixtures were formulated using a solution containing 75% (v/v) water and 25% (v/v) DMSO. Different concentrations of formulated compounds or mixtures were sprayed onto the insect diet at 2.5 μl, using a custom built micro atomizer, at two replications. For experimental mixtures in these tests identical volumes of both mixing partners at the desired concentrations respectively, were mixed together.
After application, microtiter plates were incubated at 28±1° C., 80±5% RH for 2 days. Larval mortality was then visually assessed.

[4] = system: Southern armyworm (Spodoptera eridania), 2nd instar larvae; assay: Action on southern armyworm (Spodoptera eridania), 2nd instar larvae on sprayed lima bean plants; details: 96 h, 2nd instar larvae on lima bean plants, 4 days after treatment, read-out: mortality in comparison with untreated controls
Description: Example B7: Action on Southern Armyworm (Spodoptera eridania), 2nd Instar Larvae
The active compounds were formulated by a Tecan liquid handler in 100% cyclohexanone as a 10,000 ppm solution supplied in tubes. The 10,000 ppm solution was serially diluted in 100% cyclohexanone to make interim solutions. These served as stock solutions for which final dilutions were made by the Tecan in 50% acetone:50% water (v/v) into 10 or 20 ml glass vials. A nonionic surfactant (Kinetic®) was included in the solution at a volume of 0.01% (v/v). The vials were then inserted into an automated electrostatic sprayer equipped with an atomizing nozzle for application to plants/insects.
Lima bean plants (variety Sieva) were grown 2 plants to a pot and selected for treatment at the 1st true leaf stage. Test solutions were sprayed onto the foliage by an automated electrostatic plant sprayer equipped with an atomizing spray nozzle. The plants were dried in the sprayer fume hood and then removed from the sprayer. Each pot was placed into perforated plastic bags with a zip closure. About 10 to 11 armyworm larvae were placed into the bag and the bags zipped closed. Test plants were maintained in a growth room at about 25° C. and about 20-40% relative humidity for 4 days, avoiding direct exposure to fluorescent light (24 hour photoperiod) to prevent trapping of heat inside the bags. Mortality and reduced feeding were assessed 4 days after treatment, compared to untreated control plants.

[5] = system: tobacco budworm (Heliothis virescens); assay: Action on tobacco budworm (Heliothis virescens), eggs on insect diet in microtiter plates; details: 120 h, egg and larval mortality after 5 days, read-out: mortality in comparison with untreated controls
Description: Example B5: Action on Tobacco Budworm (Heliothis virescens)
For evaluating control of tobacco budworm (Heliothis virescens) the test unit consisted of 96-well-microtiter plates containing an insect diet and 15-25 H. virescens eggs.
The compounds were formulated using a solution containing 75% v/v water and 25% v/v DMSO. Different concentrations of formulated compounds were sprayed onto the insect diet at 10 μl, using a custom-built micro atomizer, at two replications.
After application, microtiter plates were incubated at about 28+1° C. and about 80+5% relative humidity for 5 days. Egg and larval mortality were then visually assessed.

[6] = system: Silverleaf whitefly (Bemisia argentifolii) (adults); assay: Action on silverleaf whitefly (Bemisia argentifolii) adults on sprayed cotton plants; details: 72 h, 3 days after treatment, read-out: mortality in comparison with untreated controls
Description: Example B4: Action on Silverleaf Whitefly (Bemisia argentifolii) (Adults)
The active compounds were formulated by a Tecan liquid handler in 100% cyclohexanone as a 10,000 ppm solution supplied in tubes. The 10,000 ppm solution was serially diluted in 100% cyclohexanone to make interim solutions. These served as stock solutions for which final dilutions were made by the Tecan in 50% acetone:50% water (v/v) into 5 or 10 ml glass vials. A non-ionic surfactant (Kinetic®) was included in the solution at a volume of 0.01% (v/v). The vials were then inserted into an automated electrostatic sprayer equipped with an atomizing nozzle for application to plants/insects.
Cotton plants at the cotyledon stage (one plant per pot) were sprayed by an automated electrostatic plant sprayer equipped with an atomizing spray nozzle. The plants were dried in the sprayer fume hood and then removed from the sprayer. Each pot was placed into a plastic cup and about 10 to 12 whitefly adults (approximately 3-5 days old) were introduced. The insects were collected using an aspirator and a nontoxic Tygon® tubing connected to a barrier pipette tip. The tip, containing the collected insects, was then gently inserted into the soil containing the treated plant, allowing insects to crawl out of the tip to reach the foliage for feeding. Cups were covered with a reusable screened lid. Test plants were maintained in a growth room at about 25° C. and about 20-40% relative humidity for 3 days, avoiding direct exposure to fluorescent light (24 hour photoperiod) to prevent trapping of heat inside the cup. Mortality was assessed 3 days after treatment, compared to untreated control plants.

[7] = system: Diamond back moth (Plutella xylostella); assay: Action on diamond back moth (Plutella xylostella), cabbage leaf dip; details: foliar, 3rd instar larvae on cabbage leaves, 72 hours after treatment, read-out: mortality in comparison with untreated controls
Description: Example B6: Action on Diamond Back Moth (Plutella xylostella)
The active compound is dissolved at the desired concentration in a mixture of 1:1 (v/v) distilled water:acetone. Surfactant (Kinetic® HV) is added at a rate of 0.01% (v/v). The test solution is prepared at the day of use.
Leaves of cabbage were dipped in test solution and air-dried. Treated leaves were placed in petri dishes lined with moist filter paper and inoculated with ten 3rd instar larvae. Mortality was recorded 72 hours after treatment. Feeding damages were also recorded using a scale of 0-100%.

| Compound | mortality at 500 ppm [1] [%] | mortality at 800 ppm [2] [%] | mortality at 800 ppm [3] [%] | mortality at 300 ppm [4] [%] | mortality at 800 ppm [5] [%] | mortality at 300 ppm [6] [%] | mortality at 500 ppm [7] [%] |
| --- | --- | --- | --- | --- | --- | --- | --- |
| COCCOCCOCCOC(=O)OCS/C(=N\N=C\c1ccc(-n2cc(NC(=O)c3ccc(OC(F)(F)F)cc3)c(C)n2)cc1)Nc1cc(C)ccc1C(C)C [Compound C-5, [(Z)—N-(2-isopropyl-5-methyl-phenyl)-N′-[(E)-[4-[3-methyl-4-[[4-(trifluoromethoxy)benzoyl]amino]pyrazol-1-yl]phenyl]methyleneamino]carbamimidoyl]sulfanylmethyl 2-[2-(2-methoxyethoxy)ethoxy]ethyl carbonate] | ≥ 75 | ≥ 75 | ≥ 50 | ≥ 75 | ≥ 75 | ≥ 75 | ≥ 75 |
| Cc1ccc(C(C)C)c(N/C(=N/N=C/c2ccc(-n3cc(NC(=O)c4ccc(OC(F)(F)F)cc4)c(C)n3)cc2)SCOC(=O)C(C)C)c1 [Compound C-6, [(Z)—N-(2-isopropyl-5-methyl-phenyl)-N′-[(E)-[4-[3-methyl-4-[[4 (trifluoromethoxy)benzoyl]amino]pyrazol-1-yl]phenyl]methyleneamino]carbamimidoyl]sulfanylmethyl 2-methylpropanoate] | ≥ 75 | ≥ 75 | ≥ 50 | ≥ 75 | ≥ 75 |  | ≥ 75 |
| Cc1ccc(C(C)C)c(N/C(=N/N=C/c2ccc(-n3cc(NC(=O)c4ccc(OC(F)(F)F)cc4)c(C)n3)cc2)SCOC(=O)N2CCOCC2)c1 [Compound C-10, [(Z)—N-(2-isopropyl-5-methyl-phenyl)-N′-[(E)-[4-[3-methyl-4-[[4-(trifluoromethoxy)benzoyl]amino]pyrazol-1-yl]phenyl]methyleneamino]carbamimidoyl]sulfanylmethyl morpholine-4-carboxylate] | ≥ 75 | ≥ 75 |  | ≥ 75 | ≥ 75 |  | ≥ 75 |
| COCCOCCOCCOCCOC(=O)OCS/C(=N\N=C\c1ccc(-n2cc(NC(=O)c3ccc(OC(F)(F)F)cc3)c(C)n2)cc1C)Nc1cc(C)ccc1C(C)C [Compound C-15, [(Z)—N-(2-isopropyl-5-methyl-phenyl)-N′-[(E)-[2-methyl-4-[3-methyl-4-[[4-(trifluoromethoxy)benzoyl]amino]pyrazol-1-yl]phenyl]methyleneamino]carbamimidoyl]sulfanylmethyl 2-[2-[2-(2-methoxyethoxy)ethoxy]ethoxy]ethyl carbonate] | ≥ 75 | ≥ 75 | ≥ 50 | ≥ 75 | ≥ 75 | ≥ 75 | ≥ 75 |
| Cc1ccc(C(C)C)c(N/C(=N/N=C/c2ccc(-n3cc(NC(=O)c4ccc(OC(F)(F)F)cc4)c(C)n3)cc2C)SCOC(=O)C2CCCCC2)c1 [Compound C-21, [(Z)—N-(2-isopropyl-5-methyl-phenyl)-N′-[(E)-[2-methyl-4-[3-methyl-4-[[4-(trifluoromethoxy)benzoyl]amino]pyrazol-1-yl]phenyl]methyleneamino]carbamimidoyl]sulfanylmethyl cyclohexanecarboxylate] | ≥ 75 | ≥ 75 |  | ≥ 75 | ≥ 75 | ≥ 75 | ≥ 75 |
| Cc1ccc(C(C)C)c(N/C(=N/N=C/c2ccc(-n3cc(NC(=O)c4ccc(OC(F)(F)F)cc4)c(C)n3)cc2C)SCOC(=O)C2CC2)c1 [Compound C-22, [(Z)—N-(2-isopropyl-5-methyl-phenyl)-N′-[(E)-[2-methyl-4-[3-methyl-4-[[4-(trifluoromethoxy)benzoyl]amino]pyrazol-1-yl]phenyl]methyleneamino]carbamimidoyl]sulfanylmethyl cyclopropanecarboxylate] | ≥ 75 | ≥ 75 | ≥ 50 | ≥ 75 | ≥ 75 |  | ≥ 75 |
| COc1ccc(/C=C/C(=O)OCS/C(=N\N=C\c2ccc(-n3cc(NC(=O)c4ccc(OC(F)(F)F)cc4)c(C)n3)cc2C)Nc2cc(C)ccc2C(C)C)cc1 [Compound C-23, [(Z)—N-(2-isopropyl-5-methyl-phenyl)-N′-[(E)-[2-methyl-4-[3-methyl-4-[[4-(trifluoromethoxy)benzoyl]amino]pyrazol-1-yl]phenyl]methyleneamino]carbamimidoyl]sulfanylmethyl (E)-3-(4-methoxyphenyl)prop-2-enoate] | ≥ 75 | ≥ 75 |  | ≥ 75 | ≥ 75 | ≥ 75 | ≥ 75 |

From US20260020569A1, “PESTICIDALLY ACTIVE THIOSEMICARBAZONE COMPOUNDS” (BASF SE, priority 2021, published 2026)
